Source: patent publication US12559471B2, “1,5-dihydro-2,4-benzodiazepine-3-one derivative and application thereof” (JIANGSU NHWA PHARMACEUTICAL CO., LTD, priority 2020, dated 2026)
“And” between values parts separate entries of the source, which are not always exact repeats. Identical values can stand only once.

Tests used:
PPI in normal rats = PPI in normal rats (dosing test, normal saline instead of DOI); type: in vivo; settings: for PPI %, MEAN / PPI %, individual animal: normal saline
Experimental: (§1) The test was performed according to literature and preliminary experiments, and the specific process was as follows: first an adaptation period of 5 min was given (62 dB background sound), and 5 separate startle reflex stimuli were given after the adaptation period (blockl, results not included in the analysis to reduce the initial response of the animals to a plateau level), followed by 4 different types of tests (block2) presented in a pseudo-random manner, namely: 1) startle reflex stimulus alone (pulse-alone, 120 dB, lasting 20 ms); 2) prepulse stimulus alone 13 dB above the background sound (prepulse-alone, 75 dB, lasting 20 ms); 3) prepulse stimulus in combination with startle reflex stimulus, each lasting 20 ms, with an interval of 100 ms; and 4) no stimulus in which only the background sound was given (no stimulus). Each trial was performed 5 times, with an average interval of 20 s (10-30 s) between trials.
(§2) The response amplitude of the startle reflex stimulus alone or the prepulse stimulus in combination with startle reflex stimulus was expressed as the AVG (instrument-specific unit) value, which indirectly reflects the size of the flinching response of the rat body. Evaluation index: PPI %=(1−response amplitude of prepulse stimulus in combination with startle reflex stimulus/response amplitude of startle reflex stimulus alone)×100. The higher the value is, the greater the degree of the inhibition is. Dosing Test:
The DOI at 0.5 mg/kg administered to animals in the above groups was changed to normal saline (NS), and other operations including administration and testing were the same as those in the intervention test.

[1] = tested on: DOI-induced head shaking behavior of mice; assay: DOI-induced head shaking (head thrust) test in mice; type: in vivo; settings: Mus musculus, intragastric, DOI 1 mg/kg i.p., 0-20 min, read-out: ED50 for inhibiting the DOI-induced head shaking behavior
Experimental: 1. Head Thrust Test in Mice
Mice were stratified according to body weight and then randomly divided into a model control group, a blank control group and drug administration groups. 1 h after the intragastric administration of a vehicle or a drug, the animals were placed in a beaker (with the diameter of 13 cm and the height of 19 cm) paved with fresh padding, and were injected with a modeling drug DOI ((±)-1-(2,5-dimethoxy-4-iodophenyl)-2-aminopropane hydrochloride or (±)-2,5-dimethoxy-4-iodoamphetamine hydrochloride) intraperitoneally at a dose of 1 mg/kg. The head shaking times of the mice during the 0-20 min after the intraperitoneal injection of DOI were recorded. The head shaking behavior is defined as a rapid rotational twitching or wet dog-like shaking of the mouse head, which is distinguished from normal grooming or exploring behavior.

[2] = tested on: MK-801-induced high activity behavior of mice; assay: Dizocilpine (MK-801)-induced high activity test in mice; type: in vivo; settings: Mus musculus, 1 h, intragastric, MK-801 0.3 mg/kg i.p., 60 min, read-out: ED50 for inhibiting the MK-801-induced high activity behavior
Experimental: 2. Dizocilpine (MK-801)-Induced High Activity Test in Mice 2.1 Test Method
Mice were stratified according to body weight and then randomly divided into a model control group, a blank control group and drug administration groups. After the administration of a test substance (or a control substance), the mice were placed into an autonomous activity test box (a black polyethylene box with the specification of 29 cm×29 cm×30 cm) for adaptation, and injected with MK-801 at 0.3 mg/kg intraperitoneally 1 h after the intragastric administration. The mice were then placed into the autonomous activity test box for video recording for 60 min. Video analysis was performed after the video recording to evaluate the activity of the mice.

5-HT2C receptor = 5-HT2C receptor (Rattus norvegicus (Rat), UniProt P08909); settings: read-out: 5-HT2C (Ki value); rat cortex membrane, 3H-Mesulergine
Experimental: 2) Preparation of 5-HT2C Membrane
The rat cortex was taken out of a refrigerator at −80° C. and thawed spontaneously. The solution A was added, and the mixture was homogenized for 3-4 s at 4th gear for a total of 4 times and centrifuged at 50000 g for 25 min at 4° C. The supernatant was discarded, and the solution A was added into the precipitate. The mixture was mixed well using a vortex mixer and centrifuged at 50000 g for 25 min at 4° C. (repeated twice). The supernatant was discarded after the centrifugation, and the precipitate was stored at −80° C. for later use.
2) Competitive 5-HT2C Receptor Binding Assay
Step 1: the prepared membrane was suspended in the homogenate B to obtain a 210 mg/mL membrane suspension for later use.
Step 2: 100 μL of the membrane suspension was added into each reaction tube.
Step 3: 100 μL of the solution B was added into a total binding tube (TB), 100 μL of Ketanserin (final concentration: 1.0×10^−5 M) was added into a non-specific binding tube (NB), and 100 μL of test compound was added into each compound binding tube (CB).
Step 4: 10 μL of radioligand ^3H-Mesulergine was added into each reaction tube to reach a final concentration of 3 nM.
Step 5: each reaction tube was incubated at 37° C. for 25 min. After the reaction was completed, the binding ligands were rapidly filtered under reduced pressure, wherein the Whatman test paper GF/C was washed with 0.5% PEI solution 1 h in advance. The filter membrane was fully washed with cold Tris buffer solution, taken out and put into a 4 mL scintillation disc, which was then added with 1 mL toluene scintillation solution and shaken for mixing well.
Step 6: the scintillation disc was put into a liquid scintillation counter for counting.

[3] = Investigation of sedation side effects (autonomic activity, movement distance); type: in vivo, mice; settings: mouse, in vivo, ip; C57BL/6j mice, intraperitoneal, 45 min after administration
Experimental: 1.3 Investigation of Sedation Side Effects (Anti-Sedation Model)
According to different doses of each group, solutions at different concentrations were separately formulated for intraperitoneal injection, with the final administration volume of 10 mL/kg.
The movement at 0-20 min was recorded on video, and the movement distance in 20 min was analyzed by Top Scan 3.00 software. The inhibition rate of each group relative to the blank group after the administration were calculated, and the sedation effects of the compounds were comprehensively evaluated in combination with a statistical conclusion.

hERG potassium channel = hERG potassium channel (Homo sapiens (Human), UniProt Q12809); assay: In vitro hERG assay, whole-cell patch clamp in HEK-293 cells; type: cell-based; settings: HEK-293 cells stably expressing hERG, room temperature
Experimental: b. […] The working solutions of the test compounds were ultrasonically treated for 20 min.
The cell suspension was gently pipetted to separate the aggregated cells.
Under an inverted microscope, recording electrodes were controlled by a glass electrode micromanipulator (micromanipulation) to contact with the cell. […] After forming the GΩ seal, a rapid capacitance compensation was given.
Negative control and test compounds flowed through the recording chamber in an ascending order of concentration by gravity perfusion to quickly act on the cells. During the recording, the extracellular fluid was continuously circulated by a vacuum pump. […] Each concentration was allowed to act for 5 min or until the current was stabilized. All experiments were performed at room temperature.
[formula] Basic statistics were calculated for each concentration, including mean, standard deviation (SD), standard error (SE), and replicates (n). The dose-dependent curve was fitted with the following equation and the half maximal inhibitory concentration (IC50) of the test compounds was calculated:
Curve fitting and calculation of IC50 were performed by GraphPad Prism 5.0 software. 5. Experimental Results

[4] = tested on: MPTP+MK-801-induced Parkinson's disease mouse model; assay: MPTP+MK-801-induced Parkinson's disease mouse model (anti-PDP efficacy model); type: in vivo; settings: ip, mice, intraperitoneal, read-out: PDP efficacy (high activity) ED50
Experimental: 1.1 Effect on MPTP+MK-801-induced Parkinson's disease mouse model (anti-PDP efficacy model)
Animals were injected with different doses of MPTP(1-methyl-4-phenyl-1,2,3,6-tetrahydropyridine) intraperitoneally every morning for 5 consecutive days. […] Then, after an interval of 0.25 h, the mice were placed into an autonomous activity test box (a black polyethylene box with the specification of 29 cm×29 cm×30 cm) for video recording for 20 min. Video analysis was performed after the video recording to evaluate the activity of the mice.

[5] = tested on: DOI-induced PPI impairment in rats; assay: DOI-induced PPI impairment test in rats (intervention test); type: in vivo; settings: DOI 0.5 mg/kg; for reversal of DOI-induced PPI impairment: P<0.05
Experimental: 3. DOI ((f)-1-(2,5-dimethoxy-4-iodophenyl)-2-aminopropane hydrochloride or (f)-2,5-dimethoxy-4-iodoamphetamine hydrochloride) induced PPI impairment effect test in rats
30 min after the intragastric administration of a drug (or a vehicle) and 30 min after the subcutaneous injection of DOI at 0.5 mg/kg at the neck, namely 60 min after the intragastric administration, the rats were placed into a startle reflex test box for testing.
as §1
as §2, with “is.” for “is. Dosing Test:”

5-HT2A receptor = 5-HT2A receptor (Homo sapiens (Human), UniProt P28223); assay: Competitive 5-HT2A receptor binding assay (3H-Ketanserin, CHO-5-HT2A membrane)
Experimental: 1) Preparation of CHO-5-HT2A Receptor Membrane
The precipitate was collected, and the supernatant was discarded. The solution B was added into the precipitate. […] The supernatant was carefully discarded, and the solution B was added into the precipitate again. […] The precipitate obtained was stored at −80° C.
1) Competitive 5-HT2A Receptor Binding Assay
Step 2: 100 μL of the membrane preparation was added into each reaction tube.
After the filtration, the filter membrane was dried at 60° C. and added into a scintillation disc attached with a bottom membrane, which was then added with 40 μL of scintillation liquid, sealed with a top membrane, and left to stand.

calcium channel receptor = settings: background statement, no significant affinity; cited from earlier work
5-HT2B receptor = 5-HT2B receptor (Homo sapiens (Human), UniProt P41595); settings: background statement, no significant affinity; cited from earlier work
muscarinic receptor = settings: background statement, no significant affinity; cited from earlier work
adrenergic receptor = settings: background statement, no significant affinity; cited from earlier work
[6] = tested on: MPTP+APO-induced climbing behavior in male mice; assay: MPTP+APO-induced climbing behavior in male mice (DA motor deterioration model); type: in vivo; settings: male mice, intraperitoneal
Experimental: (§3) 1.2 Effect on MPTP+APO-induced climbing behavior in male mice (DA motor deterioration model) Animals were injected with different doses of MPTP intraperitoneally every morning for 5 consecutive days. […] After the subcutaneous injection, animals were immediately placed into a climbing cage (self-made, a cylindrical cage with the diameter of 13 cm and the height of 15 cm, made of a stainless steel wire mesh with the diameter of about 0.1 cm, the bottom of which is a semitransparent polyethylene plate, and the cage cover of which is a stainless steel cage cover), and the behaviors of animals at minutes 10-11, 20-21 and 30-31 after the APO injection was observed and scored.
(§4) Scoring criteria: four feet on the floor scored 0; two forepaws on the cage scored 1; and four feet on the cage scored 2.

[7] = as above; type: in vivo; settings: mouse, in vivo, ip; male mice, intraperitoneal; read-out: DA side effects (climbing motor deterioration) ED50
Experimental: as §3, §4

Chain of 5-HT2A receptor (P28223 whole entry): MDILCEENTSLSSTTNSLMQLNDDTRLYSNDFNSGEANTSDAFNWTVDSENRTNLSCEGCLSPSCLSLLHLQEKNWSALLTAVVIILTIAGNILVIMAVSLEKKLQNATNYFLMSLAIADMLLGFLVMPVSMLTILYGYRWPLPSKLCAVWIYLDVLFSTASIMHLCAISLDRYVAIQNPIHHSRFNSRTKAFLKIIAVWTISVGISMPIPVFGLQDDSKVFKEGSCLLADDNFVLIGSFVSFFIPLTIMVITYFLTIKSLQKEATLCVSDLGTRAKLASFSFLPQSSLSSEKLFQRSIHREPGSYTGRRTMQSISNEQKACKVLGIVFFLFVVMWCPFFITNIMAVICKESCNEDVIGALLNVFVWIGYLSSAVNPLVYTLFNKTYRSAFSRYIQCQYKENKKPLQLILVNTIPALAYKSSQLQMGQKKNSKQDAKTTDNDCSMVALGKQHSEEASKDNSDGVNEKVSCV
Chain of hERG potassium channel (Q12809 whole entry): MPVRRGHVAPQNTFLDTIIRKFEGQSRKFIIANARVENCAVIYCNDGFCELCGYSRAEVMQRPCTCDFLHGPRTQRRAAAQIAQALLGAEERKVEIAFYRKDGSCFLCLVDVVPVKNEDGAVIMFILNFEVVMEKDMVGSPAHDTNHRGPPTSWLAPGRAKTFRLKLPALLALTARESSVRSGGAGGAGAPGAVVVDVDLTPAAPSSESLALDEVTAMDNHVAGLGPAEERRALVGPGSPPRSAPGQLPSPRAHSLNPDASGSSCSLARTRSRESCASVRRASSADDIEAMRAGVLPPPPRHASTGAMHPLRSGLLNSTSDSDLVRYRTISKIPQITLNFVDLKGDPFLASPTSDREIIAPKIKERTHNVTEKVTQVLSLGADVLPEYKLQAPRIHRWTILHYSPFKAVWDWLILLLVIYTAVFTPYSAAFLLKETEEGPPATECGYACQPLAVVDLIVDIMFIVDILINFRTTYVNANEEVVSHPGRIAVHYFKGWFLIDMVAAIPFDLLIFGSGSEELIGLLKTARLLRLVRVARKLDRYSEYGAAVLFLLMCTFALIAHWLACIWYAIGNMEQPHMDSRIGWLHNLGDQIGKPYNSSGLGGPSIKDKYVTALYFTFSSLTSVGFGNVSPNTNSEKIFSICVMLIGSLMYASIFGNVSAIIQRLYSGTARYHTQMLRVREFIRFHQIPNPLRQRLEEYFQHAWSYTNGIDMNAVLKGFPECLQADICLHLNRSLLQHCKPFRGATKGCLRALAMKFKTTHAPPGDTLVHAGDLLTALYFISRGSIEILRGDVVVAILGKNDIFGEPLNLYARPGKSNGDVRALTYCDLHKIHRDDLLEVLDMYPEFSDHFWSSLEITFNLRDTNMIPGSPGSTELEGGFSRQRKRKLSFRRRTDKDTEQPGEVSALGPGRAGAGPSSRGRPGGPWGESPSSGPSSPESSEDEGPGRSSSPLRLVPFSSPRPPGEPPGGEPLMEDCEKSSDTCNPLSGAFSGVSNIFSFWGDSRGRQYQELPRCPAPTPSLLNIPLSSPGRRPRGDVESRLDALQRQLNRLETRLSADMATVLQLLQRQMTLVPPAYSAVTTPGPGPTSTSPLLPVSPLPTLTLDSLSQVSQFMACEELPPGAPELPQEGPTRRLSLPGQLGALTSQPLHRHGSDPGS
Chain of 5-HT2B receptor (P41595 whole entry): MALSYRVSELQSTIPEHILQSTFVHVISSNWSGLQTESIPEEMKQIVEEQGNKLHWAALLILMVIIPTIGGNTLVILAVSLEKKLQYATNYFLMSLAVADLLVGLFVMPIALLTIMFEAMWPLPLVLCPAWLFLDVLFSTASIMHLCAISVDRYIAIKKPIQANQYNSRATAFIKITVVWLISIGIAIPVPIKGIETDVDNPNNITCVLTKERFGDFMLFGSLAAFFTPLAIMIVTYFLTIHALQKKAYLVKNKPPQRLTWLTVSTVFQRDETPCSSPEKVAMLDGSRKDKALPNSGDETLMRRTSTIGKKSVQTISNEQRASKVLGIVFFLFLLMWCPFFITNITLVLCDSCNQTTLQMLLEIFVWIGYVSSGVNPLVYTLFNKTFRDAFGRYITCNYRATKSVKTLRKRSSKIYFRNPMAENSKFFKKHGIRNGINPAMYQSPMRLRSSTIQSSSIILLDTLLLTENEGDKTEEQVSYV
Chain of 5-HT2C receptor (P08909 33-460): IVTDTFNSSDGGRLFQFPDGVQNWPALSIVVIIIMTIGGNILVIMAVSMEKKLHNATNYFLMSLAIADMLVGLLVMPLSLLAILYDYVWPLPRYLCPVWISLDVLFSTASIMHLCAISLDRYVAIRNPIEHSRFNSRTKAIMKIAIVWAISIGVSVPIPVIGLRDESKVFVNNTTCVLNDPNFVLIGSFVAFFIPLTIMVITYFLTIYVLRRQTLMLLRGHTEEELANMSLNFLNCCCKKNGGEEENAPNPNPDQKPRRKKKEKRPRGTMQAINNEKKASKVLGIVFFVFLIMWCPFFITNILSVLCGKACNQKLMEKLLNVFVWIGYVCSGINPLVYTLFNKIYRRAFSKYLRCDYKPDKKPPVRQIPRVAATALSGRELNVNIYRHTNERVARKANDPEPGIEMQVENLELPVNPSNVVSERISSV

CN1CCC(N2Cc3cc(F)ccc3CN(Cc3ccc(OC4CC4)cc3)C2=O)CC1 [NH-K-A19006, 8-fluoro-2-(1-methylpiperidin-4-yl)-4-[[4-(cyclopropoxy)phenyl]methyl]-1,5-dihydro-2,4-benzodiazepine-3-one]
effect on PPI in normal rats (PPI in normal rats; 0.3 mg/kg): no significant effects were seen | PPI %, MEAN (PPI in normal rats; 0.03 mg/kg intragastric): 68.69% | PPI %, individual animal (PPI in normal rats; 0.03 mg/kg intragastric): 81.41% and 91.96% and 55.90% and 54.35% and 60.94% and 74.39% and 87.22% and 43.35% | PPI %, MEAN (PPI in normal rats; 0.1 mg/kg intragastric): 70.23% | PPI %, individual animal (PPI in normal rats; 0.1 mg/kg intragastric): 60.40% (2×) and 81.41% and 77.50% and 71.96% and 69.71% and 50.53% and 89.95% | PPI %, MEAN (PPI in normal rats; 0.3 mg/kg intragastric): 53.62% | PPI %, individual animal (PPI in normal rats; 0.3 mg/kg intragastric): 47.76% and 42.79% and 68.71% and 70.20% and 55.52% and 65.07% and 16.28% and 62.68% | ED50 [1]: 0.012 mg/kg | ED50 [2]: 0.265 mg/kg | Ki (5-HT2C receptor): 1.62 nM | ED50 at 45 min [3]: 11.9 mg/kg | IC50 (hERG potassium channel): 1190 nM | ED50 [4]: 0.31 mg/kg | reversal of DOI-induced PPI impairment ([5]; 0.3 mg/kg): significantly reverse | PPI %, MEAN ([5]; 0.03 mg/kg intragastric): 33.01% | PPI %, individual animal ([5]; 0.03 mg/kg intragastric): 49.78% and 58.97% and 53.17% and 2.79% and 32.00% and 8.44% and 20.87% and 38.06% | PPI %, MEAN ([5]; 0.1 mg/kg intragastric): 43.48% | PPI %, individual animal ([5]; 0.1 mg/kg intragastric): 12.46% and 51.33% and 38.29% and 47.73% and 47.53% and 74.93% and 10.18% and 65.40% | PPI %, MEAN ([5]; 0.3 mg/kg intragastric): 50.12% | PPI %, individual animal ([5]; 0.3 mg/kg intragastric): 60.53% and 60.18% and 56.91% and 67.62% and 85.73% and 7.56% and 39.78% and 22.65% | Ki (5-HT2A receptor; CHO-5-HT2A membrane, 3H-Ketanserin, read-out: 5-HT2A (Ki value)): 0.277 nM | 2C/2A (5-HT2A receptor; ratio of 5-HT2C Ki to 5-HT2A Ki): 5.856

CC(C)COc1ccc(CNC(=O)N(Cc2ccc(F)cc2)C2CCN(C)CC2)cc1 [Pimavanserin, reference compound]
Ki (calcium channel receptor): > 300 nM | PPI %, MEAN (PPI in normal rats; 1 mg/kg intragastric): 63.11% | PPI %, individual animal (PPI in normal rats; 1 mg/kg intragastric): 14.80% and 45.96% and 67.95% and 61.11% and 92.15% and 83.93% and 70.62% and 68.32% | PPI %, MEAN (PPI in normal rats; 3 mg/kg intragastric): 60.54% | PPI %, individual animal (PPI in normal rats; 3 mg/kg intragastric): 76.95% and 37.54% and 42.51% and 64.49% and 42.29% and 71.78% and 84.89% and 63.88% | PPI %, MEAN (PPI in normal rats; 10 mg/kg intragastric): 57.00% | PPI %, individual animal (PPI in normal rats; 10 mg/kg intragastric): 83.19% and 80.13% and 44.91% and 82.49% and 52.16% and −32.12% and 72.74% and 72.49% | ED50 [1]: 0.39 mg/kg | ED50 [2]: 3.29 mg/kg | Ki (5-HT2B receptor): > 300 nM | ED50 at 45 min [3]: 6.79 mg/kg | ED50 [4]: 0.37 mg/kg | Ki (muscarinic receptor): > 300 nM | reversal of DOI-induced PPI impairment ([5]; 3 mg/kg): significantly reverse | PPI %, MEAN ([5]; 1 mg/kg intragastric): 28.93% | PPI %, individual animal ([5]; 1 mg/kg intragastric): 30.19% and 7.34% and 12.78% and −9.80% and 36.56% and 57.19% and 55.33% and 41.86% | PPI %, MEAN ([5]; 3 mg/kg intragastric): 42.65% | PPI %, individual animal ([5]; 3 mg/kg intragastric): 25.79% and 45.06% and 35.48% and 4.10% and 30.23% and 62.54% and 62.41% and 75.59% | PPI %, MEAN ([5]; 10 mg/kg intragastric): 47.32% | PPI %, individual animal ([5]; 10 mg/kg intragastric): 69.36% and 54.29% and 71.90% and 24.73% and 32.57% and 37.52% and 33.19% and 55.00% | Ki (adrenergic receptor): > 300 nM | DA side effects (climbing motor deterioration) ED50 [6]: >30 mg/kg | ED50 [7]: > 30 mg/kg
